Our source for the T/C and Average weight change values is ChEMBL document CHEMBL1122080, “2- and 6-methyl-1,4-naphthoquinone derivatives and potential bioreductive alkylating agents” (1982).

What all share (format): functional
The subject of assay [1] is Mus musculus. The assay can be described thus: Ratio of the survival time of treated to control animals at dose 10 mg/kg.
Assay [2] concerns Mus musculus. As to the kind of experiment: Ratio of the survival time of treated to control animals at dose 20 mg/kg.
The subject of assay [3] is Mus musculus. The assay can be described thus: Ratio of the survival time of treated to control animals at dose 5 mg/kg.
Assay [4] relates to Mus musculus. As to the kind of experiment: Average weight change in mice bearing sarcoma 180 ascites cells at dose 10 mg/kg.
For assay [5], the system named is Mus musculus. As to the kind of experiment: Average weight change in mice bearing sarcoma 180 ascites cells at dose 20 mg/kg.
Assay [6] relates to Mus musculus. As to the kind of experiment: Average weight change in mice bearing sarcoma 180 ascites cells at dose 5 mg/kg.
The test system of assay [7] is Mus musculus. As to the kind of experiment: Ratio of the survival time of treated to control animals at dose 2.5 mg/kg.
Assay [8] relates to Mus musculus. The assay can be described thus: Average weight change in mice bearing sarcoma 180 ascites cells at dose 2.5 mg/kg.

Structures are written as SMILES.

Consider `O=C(NCCCl)OCc1ccc2c(c1)C(=O)C=CC2=O`, for which the figures for the T/C in the assay with Mus musculus [1], in the assay with Mus musculus [2] and in the assay on Mus musculus [3] were 1.63, 0.5 and 1.47, respectively. The Average weight change in the assay on Mus musculus [4] is -11.7%; in the assay with Mus musculus [5], -17.3%; with Mus musculus [6], -9%.

Take `O=C1C=C(CBr)C(=O)c2ccccc21`: the T/C in the assay with Mus musculus [1] amounted to 1.49; with Mus musculus [7], 1.61; with Mus musculus [2] it was 1.69; in the assay with Mus musculus [3], 1.73. The Average weight change in the assay on Mus musculus [4] is -7.7%; with Mus musculus [8], 1.7%; in the assay with Mus musculus [5] it was -9.1%; with Mus musculus [6], -5.4%.

In the case of `O=C1C=CC(=O)c2cc(CCl)ccc21`, the T/C was found to be 1.05 with Mus musculus [1], 0.22 in the assay with Mus musculus [2] and 1.38 with Mus musculus [3]. Moreover, the Average weight change in the assay on Mus musculus [4] is -13.5%; in the assay with Mus musculus [6] it was -10.4%.

As to `Cc1ccc(S(=O)(=O)OCc2ccc3c(c2)C(=O)C=CC3=O)cc1`, the T/C with Mus musculus [1] was determined as 1.82; in the assay on Mus musculus [2], 1.64; in the assay on Mus musculus [3], 1.44. Besides, the figures for the Average weight change with Mus musculus [4], in the assay on Mus musculus [5] and with Mus musculus [6] were -11.6%, -15.2% and -3.8%, respectively.

`Cc1ccc(S(=O)(=O)OCC2=CC(=O)c3ccccc3C2=O)cc1`: the T/C with Mus musculus [1] came to 2.16; in the assay with Mus musculus [2], 1.62; in the assay with Mus musculus [3], 1.77. Besides, the Average weight change is on record as -4.4% in the assay with Mus musculus [4], -7.4% in the assay with Mus musculus [5] and 2.8% in the assay on Mus musculus [6].

In the case of `O=C1C=C(CCl)C(=O)c2ccccc21`, the T/C amounted to 1.47 in the assay on Mus musculus [1], 1.3 with Mus musculus [2] and 1.4 in the assay with Mus musculus [3]. In addition, the values for the Average weight change with Mus musculus [4], with Mus musculus [5] and in the assay on Mus musculus [6] were -9.8%, -16.4% and -2%, respectively.

Consider `CS(=O)(=O)OCc1ccc2c(c1)C(=O)C=CC2=O`, for which the T/C in the assay on Mus musculus [1] is recorded as 1.43; in the assay with Mus musculus [2] it was 1.44; with Mus musculus [3], 1.71. For the same compound, the Average weight change in the assay with Mus musculus [4] is given as -11.8%; in the assay with Mus musculus [5], -13.3%; in the assay on Mus musculus [6], -6.3%.

For `CNC(=O)OCC1=CC(=O)c2ccccc2C1=O`, the T/C is on record as 1.51 in the assay on Mus musculus [1], 0.51 in the assay on Mus musculus [2] and 1.39 in the assay with Mus musculus [3]. For the same compound, the Average weight change with Mus musculus [4] is on record as -10.5%; with Mus musculus [5] it was -11.4%; in the assay on Mus musculus [6] it was -12.6%.

On to `CC1=CC(=O)c2ccccc2C1=O` [MENADIONE], for which the results for the T/C in the assay on Mus musculus [1], in the assay with Mus musculus [2] and with Mus musculus [3] were 1.03, 1.34 and 0.85, respectively. The Average weight change was 17.3% with Mus musculus [4], -2% in the assay with Mus musculus [5] and 18.7% in the assay on Mus musculus [6].

With `O=C1C=CC(=O)c2cc(CO)ccc21`, the T/C with Mus musculus [1] turned out to be 0.17; in the assay with Mus musculus [7] it was 1.16. For the same compound, the Average weight change in the assay on Mus musculus [8] was -9.1%.

Turning to `CC(=O)OCC1=CC(=O)c2ccccc2C1=O`, the T/C with Mus musculus [1] worked out at 1.62; in the assay on Mus musculus [2], 0.7; in the assay on Mus musculus [3] it was 1.66. Besides, the figures for the Average weight change with Mus musculus [4], with Mus musculus [5] and in the assay with Mus musculus [6] were -14.4%, -10.2% and -9.3%, respectively.

Take `CC(=O)OCc1ccc2c(c1)C(=O)C=CC2=O`: the T/C was determined as 0.93 in the assay with Mus musculus [1], 0.48 in the assay with Mus musculus [2] and 1.35 with Mus musculus [3]. In addition, the Average weight change is -7.4% in the assay with Mus musculus [5] and -2.9% with Mus musculus [6].

Regarding `COCC1=CC(=O)c2ccccc2C1=O`, the T/C turned out to be 1.38 in the assay on Mus musculus [1], 1.07 with Mus musculus [2] and 0.98 in the assay with Mus musculus [3]. Moreover, the Average weight change is reported as 1.6% in the assay on Mus musculus [4], -19% with Mus musculus [5] and 17% in the assay with Mus musculus [6].

As to `O=C1C=CC(=O)c2cc(CBr)ccc21`, the T/C in the assay with Mus musculus [1] is recorded as 1.42; in the assay with Mus musculus [7], 2.07; with Mus musculus [2], 0.57; in the assay on Mus musculus [3], 1.46. Moreover, the Average weight change is recorded as -11.3% in the assay with Mus musculus [4], -4.2% in the assay on Mus musculus [8], -12.5% in the assay on Mus musculus [5] and -7.8% with Mus musculus [6].

As to `O=C1C=C(CO)C(=O)c2ccccc21`, the T/C turned out to be 0.45 in the assay on Mus musculus [1], 0.22 with Mus musculus [2] and 1.16 with Mus musculus [3]. The Average weight change in the assay on Mus musculus [4] was -15.2%; in the assay with Mus musculus [6] it was -6.4%.

Take `CS(=O)(=O)OCC1=CC(=O)c2ccccc2C1=O`: the T/C in the assay with Mus musculus [1] was determined as 1.57; in the assay with Mus musculus [2] it was 1.41; in the assay with Mus musculus [3], 1.92. Also, the Average weight change in the assay on Mus musculus [4] was -8.3%; in the assay on Mus musculus [5], -8.8%; with Mus musculus [6], -6.3%.

For `CCOCc1ccc2c(c1)C(=O)C=CC2=O`, the T/C in the assay with Mus musculus [1] was found to be 0.97; in the assay on Mus musculus [2], 0.42; in the assay with Mus musculus [3], 1.32. Further, the Average weight change is listed as -10.3% in the assay with Mus musculus [4] and -6.4% with Mus musculus [6].

For the compound `O=C(NCCCl)OCC1=CC(=O)c2ccccc2C1=O`, the values for the T/C in the assay with Mus musculus [1], in the assay with Mus musculus [2] and in the assay with Mus musculus [3] were 1.71, 1.96 and 2.08, respectively. The figures for the Average weight change with Mus musculus [4], in the assay with Mus musculus [5] and in the assay with Mus musculus [6] were -11.4%, -13.8% and -4.6%, respectively.

As for `CNC(=O)OCc1ccc2c(c1)C(=O)C=CC2=O`, the T/C is recorded as 1.61 with Mus musculus [1], 0.81 in the assay on Mus musculus [2] and 1.71 in the assay on Mus musculus [3]. Besides, the figures for the Average weight change with Mus musculus [4], with Mus musculus [5] and with Mus musculus [6] were -7.8%, -10.8% and -7.6%, respectively.

Turning to `Cc1ccc2c(c1)C(=O)C=CC2=O`, the T/C turned out to be 0.38 in the assay on Mus musculus [1], 0.26 with Mus musculus [2] and 1.09 with Mus musculus [3]. Also, the Average weight change in the assay with Mus musculus [4] is reported as -11.1%; in the assay with Mus musculus [6] it was -11.5%.
